A melting point compilation (Tetko et al.)

Compound | melting point [°C]
COc1cc(C=O)cc2c1OCO2 | 130 to 134
O=C(O)c1cc(N2CCCC2=O)ccc1F | 254 to 256
CC(CS(=O)(=O)c1ccc(F)cc1)C(=O)O (configuration not stated) | 128 to 130
CC(NC(N)=S)c1ccc(Cl)cc1Cl (configuration not stated) | 164 to 166
CCOc1ccc(NS(=O)(=O)c2ccc(C)c(C(=O)O)c2)cc1 | 231 to 233
Nc1cc(Cl)ccc1-n1ccnc1 | 154 to 156
O=C(O)c1cccc(S(=O)(=O)CC(F)(F)F)c1 | 192 to 194
O=C(O)c1cnc(-c2ccco2)s1 | 237 to 239
Cc1cc(Cl)cc2nc(Cl)oc12 | 59 to 61
CCN(CC)S(=O)(=O)c1ccc(Cl)nc1 | 82 to 84
CCOC(=O)c1ccc(-n2c(C)cc(C=O)c2C)cc1 | 113 to 115
COc1cc(Br)cc(F)c1C#N | 75 to 77
Cc1cc(C)c(C#N)c(=S)[nH]1 | 255 to 257
O=C(O)c1ccc(Cl)c(S(=O)(=O)Nc2ccc(Br)cc2)c1 | 225 to 227
CS(=O)(=O)N1CCc2c(N)cccc2C1 | 155 to 157
Nc1cc(-c2ccco2)nn1-c1cccc([N+](=O)[O-])c1 | 185 to 187
O=C(NC1CC1)c1ccc(Br)cc1 | 151 to 153
Cc1cccc(OCCCCC(=O)O)c1 | 55 to 57
CCS(=O)(=O)CCOc1ccc(S(=O)(=O)Cl)cc1 | 92 to 94

Compound | melting point [°C]
NC(=O)Nc1cccc(Br)c1 | 163 to 167
O=S1(=O)C=CCC1 | 62 to 64
COc1ccc(C(=O)CCCC(=O)O)cc1 | 138 to 140
N#CCCCOc1cccnc1N | 88 to 90
Cc1cc(NC(=O)C(C)Cl)no1 (configuration not stated) | 132 to 134
CC(C)(C)c1ccc(Cn2nccc2N)cc1 | < 17
Cc1cc(N)n(Cc2ccccc2)n1 | 68 to 70
COc1ccc(NC(=O)C(C)Cl)c(OC)c1 (configuration not stated) | 65 to 67
O=Cc1ccc(-c2ccc([N+](=O)[O-])cc2Br)o1 | 132 to 136
CC(C)c1cc(N)on1 | 33 to 35
O=C(O)CCCN1C(=O)CNC1=O | 151 to 153
O=C(O)c1cc(OCc2ccccc2)ccn1 | 159 to 161
COC(=O)c1ccc(Br)c(S(=O)(=O)Cl)c1 | 102 to 104
CCOc1ccc2ccccc2c1CO | 49 to 51
Cc1nc(NCCc2ccccc2)sc1C(=O)O | 170 to 172
COC(=O)c1coc(-c2cccc(C#N)c2)n1 | 183 to 185
O=C(Nc1cccc([N+](=O)[O-])c1)OCC(F)(F)F | 98 to 100
COc1cc(NC(C)=O)c(C(=O)O)cc1OC | 229 to 231
CC(C)COc1ccc(CC(=O)O)cc1 | 86 to 88

Compound | melting point [°C]
OCc1nnc(Cc2ccccc2Br)[nH]1 | 99 to 101
CS(=O)(=O)Nc1ccc(Br)cc1Cl | 98 to 100
O=C(O)c1cc(Cl)c(Br)[nH]1 | 168 to 170
O=C(O)c1cccnc1SCC1CCCCC1 | 145 to 147
Nc1cc(Br)ccc1N1CCOCC1 | 153 to 155
N#Cc1c(F)cccc1Oc1ccc(N)cc1 | 156 to 158
COc1cc(NC(C)=O)ccc1N | 128 to 130
COC(=O)c1ccncc1C(=O)OC | 55 to 57
Cc1sc2nc(CN3CCCCC3)nc(Cl)c2c1C | 61 to 63
CN1CC(N)C(=O)N1 (configuration not stated) | 55 to 57
Cc1sc(N)nc1C(C)C | 107 to 109
CCc1nc(N)nc(SC)n1 | 143 to 145
Cc1cc(C(=O)CCl)c(C)n1-c1ccc2c(c1)OCO2 | 98 to 110
NNC(=O)Cc1csc(N2CCOCC2)n1 | 168 to 170
Nc1nnc(-c2ccc([N+](=O)[O-])o2)o1 | 259 to 261
O=C(CN1CCNCC1)Nc1ccc(OC(F)(F)F)cc1 | 86 to 88
Sc1ncnc2ccsc12 | 271 to 273
CN(C)c1ccc(C(=O)O)cc1[N+](=O)[O-] | 198 to 200
CCn1cc(N)c(=O)c(Br)c1 | 116 to 118
